The subject of assay [1] is Clytia MIHR. Put plainly: Dose–response curves of Clytia MIHR, luminescence (CHO-K1 cells, Gα-16, GFP-apoaequorin). Also on record: key to Span (best-fit value) / Bottom (best-fit value): % activation, normalized to fitted upper plateau (100%). It counts as cell-based, Clytia hemisphaerica. Conditions: for EC50: four-parameter fit, variable slope, triplicate; for HillSlope / LogEC50: best-fit value; for Span / Top / Bottom: best-fit value (luminescence); for EC50 / relative activity on MIHR: three independent dose–response experiments. The procedure: The Clytia MIH amidated peptides are produced from two precursor genes Che-pp4 (generating multiple copies of WPRAamide, WPRYamide, and WPRPamide) and Che-pp1 (multiple copies of WPRPamide and RPRGamide).
(§1) Cell culture GPCR ligand response assays were performed as described. Briefly, CHO-K1 cells were cultured in Ham’s F12 Nut Mix medium (Thermo Fisher Scientific) with 10% foetal bovine serum. Cells were seeded in 96-well plates at approximately 10,000 cells/well and transfected the following day with pcDNA3.1(+) plasmids encoding each of the 16 candidate Clytia GPCRs (S2 Text), the promiscuous Gα-16 protein [65], and a reporter construct GFP-apoaequorin [66] (60 ng each) using the transfection reagent TurboFect (Thermo Fisher Scientific). After 2 days of expression, the medium was removed and replaced with Hank’s balanced salt solution (HBSS) supplemented with 1.8 mM Ca2+, 10 mM glucose, and […] coelenterazine h (Promega, Madison, WI). After incubation at 37 °C for 2 hours, cells were tested by adding synthetic peptides (GenScript) in HBSS supplemented with 1.8 mM Ca2^+ and 10 mM glucose. A list of all synthetic peptides used is provided in S2 Table. Luminescence was recorded for 45 seconds in a plate reader (BioTek Synergy Mx or Synergy H4; BioTek, Winooski, VT). Data were integrated over the 45-second measurement period and recorded as technical triplicates in each case. Data were normalized using the response of Platynereis FLamide receptor to 1 μM AKYFL-NH2 [28]. Dose–response curves were obtained using concentrations between 0.01 nM and 100 μM for each peptide. Data for dose–response curves were recorded in triplicate for each concentration and the experiment was repeated independently 3 times. Dose–response curves were fitted with a four-parameter curve using Prism 6 (GraphPad, La Jolla, CA) and were normalized to the calculated upper plateau values (100% activation).
Supplementary file pbio.3000614.s012.xlsx: S2 Data Numerical data corresponding to Fig 1C. The first three tabs show statistical values obtained using Prism 6 software (GraphPad, La Jolla, CA) from the raw luminescence values for 3 independent dose–response experiments. The raw luminescence values are shown, as well as the values normalized with respect to the maximum. […] MIH, maturation-inducing hormone. (XLSX) Click here for additional data file.

For assay [2], the system named is Clytia MIHR. Description: GPCR deorphanization assay, luminescence response to peptides at 1 μM (CHO-K1 cells, Gα-16, GFP-apoaequorin). The assay is classed as cell-based, Clytia hemisphaerica. The note with it: peptide 1E-6M, normalised to Platynereis FLamide receptor + 1 μM AKYFL-NH2, n = 3.
From the text: We used a cell culture–based GPCR deorphanization assay to identify the MIH receptor from our candidate shortlist. cDNAs for each candidate were transfected into Chinese Hamster ovary K1 (CHO-K1) cells along with the promiscuous Gα protein Gα-16, and an aequorin-GFP luminescence reporter that measures Ca^2+ mobilization downstream of this heterologous Gα protein [27, 28]. We first screened the 16 candidate Clytia GPCRs against a mixture of 33 synthetic amidated peptides (including MIHs) predicted to be generated from previously identified putative Clytia neuropeptide precursors and one additional one identified from transcriptome data. Given our imperfect knowledge of pro-peptide processing in cnidarians, some of the synthetic peptides may not correspond to endogenous peptides. Only one of the 16 GPCRs was activated by this peptide mixture. This receptor responded well to all 4 synthetic Clytia MIH tetrapeptides, as well as to related Cladonema MIH peptides that can also activate Clytia oocyte maturation, but not to other Clytia peptide mixtures or poorly active MIH penta-/tripeptides. We termed this Clytia GPCR the Maturation Inducing Hormone Receptor (MIHR). The activity of individual peptides at 1 μM to stimulate the MIHR closely matched their in vivo ability to induce oocyte maturation (Fig 1B).
as §1
Supplementary file pbio.3000614.s011.xlsx: S1 Data Numerical data corresponding to Fig 1B. Raw luminescence values obtained in triplicate for each of the neuropeptide combinations tested against the MIHR in the deorphanization assay are provided. In the right-hand table, the raw luminescence values obtained in quadruple for the positive and negative controls are provided. In the lower table, means and standard errors of the mean of the luminescence values obtained for each neuropeptide combination and controls are also shown, as well as the values normalized to the positive control, which were used to prepare the graph shown in Fig 1B. MIHR, MIH receptor. (XLSX) Click here for additional data file.

Assay [3] relates to fully grown oocytes isolated from WT gonads. Description: Oocyte maturation assay, wild-type isolated oocytes (GVBD). It counts as cell-based, Clytia hemisphaerica. An excerpt:
(§2) Fig 4 Oocyte maturation failure in MIHR mutant medusae. Oocyte maturation assays performed using isolated gonads (A, B) or isolated oocytes (C) from MIHR mutant jellyfish compared to WT. In A and C, bar heights represent mean percentages of 3 independent experiments and error bars show standard deviations. Total gonad or oocyte numbers for each treatment are indicated in gray. (A) Spawning response of isolated gonads from WT and n5-23 female medusae. Three treatments were compared as indicated above each panel: Light: light stimulation after incubation in the dark; MIH: treatment of light-maintained gonads with 100 nM WPRPamide; cAMP: treatment of light-maintained gonads with 4 mM Br-cAMP. […] Full datasets from three independent experiments are available in S3 Data. (B) Light microscope images illustrating gonads from an equivalent experiment performed with n5-13 female MIHR mutant medusae 120 minutes after the indicated treatments. Scale bar: 500 μm. […] Full datasets from 3 independent experiments are available in S3 Data. Br-cAMP, bromoadenosine 3′,5′-cyclic monophosphate; cAMP, cyclic adenosine monophosphate; KO, knockout; MIH, maturation-inducing hormone; MIHR, MIH receptor; WT, wild-type.
(§3) Fully grown oocytes were isolated manually from dissected gonads of wild-type and MIHR KO mutant jellyfish prepared as above. Maturation assays were performed in wells of 96-well plates or small plastic petri dishes lined with 2% agarose in MFSW. Spontaneous maturation occurs at a low frequency in control oocytes. To test MIH-induced maturation, 10 μL WPRPamide from 1 μM solution in MFSW was added to a final concentration of 100 nM. In some experiments, Br-cAMP from a 20 mM stock in H2O was used at a final concentration of 4 mM. GVBD was scored at 30 minutes, every 5 minutes, depending on experiments.
(§4) Supplementary file pbio.3000614.s013.xlsx: S3 Data Numerical data corresponding to Fig 4A and 4C. The first tab collects all the raw data from 3 independent gonad spawning assays. Information corresponding to the Fisher exact tests is also shown. […] The means and standard deviations were used to prepare the graph in Fig 4C. Information corresponding to the Fisher exact tests is also shown. (XLSX) Click here for additional data file.

The test system of assay [4] is MIHR mutant (n5-23, n5-13) isolated female gonads. Put plainly: Gonad spawning assay, MIHR mutant isolated gonads. The note with it: isolated MIHR mutant gonads, 4 mM Br-cAMP, washed after 5 minutes. Also noted: species or system Clytia hemisphaerica. The method, then:
We performed a series of oocyte maturation and spawning assays, comparing the responses of wild-type and MIHR mutant isolated gonads and oocytes to different stimuli (Fig 4).
Sexually mature MIHR mutant medusae from colonies n5-13 and n5-23 and wild-type medusae were cultured on the same day–night cycle. Individual gonads were dissected in the evening after afternoon spawning. To test the light response, one group of each was transferred to 100 μL MFSW in wells of 96-well plastic plates, covered overnight, and re-exposed to white light the following day. To test responses to MIH and cAMP, other groups of dissected gonads were cultured overnight in constant light, then transferred to 96-well plastic plates for two hours. MIH was added to wells as an equal volume of 200 nM WPRPamide (GenScript) stock in MFSW was added to give a final concentration of 100 nM. Alternatively, a stock of 20 mM bromo adenosine 3′,5′cyclic monophosphate (Br-cAMP–Fluka; Sigma Aldrich) in distilled water was added to give a final concentration of 4 mM. Gonads were washed after 5 minutes incubation in Br-cAMP. Oocyte maturation was scored after 30 minutes as germinal vesicle breakdown (GVBD), i.e., visible dissolution of the oocyte nuclear membrane upon entry into M phase, which in all cases was followed by spawning about 1 hour later.
as §4

Another assay deals with hydrozoan oocytes. Conditions: cell-permeable analogue of cAMP; ref [3],[21]; cited from earlier work. An excerpt:
We performed a series of oocyte maturation and spawning assays, comparing the responses of wild-type and MIHR mutant isolated gonads and oocytes to different stimuli (Fig 4). […] I ...

Assay [5] deals with fully grown oocytes isolated from MIHR mutant (n5-23) gonads. Put plainly: Oocyte maturation assay, MIHR mutant isolated oocytes (GVBD). The assay is classed as cell-based, Clytia hemisphaerica.
From the text: as §2, §3, §4

[6] abbreviates: log(agonist) vs. response, variable slope (four parameters), fit of third dataset.
Where [7] appears, read: 100 nM WPRPamide or 4 mM Br-cAMP.

The values that follow come from article PMC7053711, “A G protein–coupled receptor mediates neuropeptide-induced oocyte maturation in the jellyfish Clytia” (PLoS Biology, 2020).

The structures appear in SMILES notation. Entries after “also recorded” stand apart in the source; their conditions may differ. Peptide text beside a SMILES is read from it.

As for `N=C(N)NCCC[C@H](NC(=O)[C@@H]1CCCN1C(=O)[C@@H](N)CCCNC(=N)N)C(=O)NCC(N)=O` [RPRGa] (H-RPRG-NH2; N-terminus assumed), the EC50 (commonly the concentration that produces a half-maximal response) in the assay on Clytia MIHR [1] (dataset/experiment 1) worked out at 724 nM. Also, the EC50 with Clytia MIHR [1] (dataset/experiment 2) amounted to 2210 nM. Also, in the assay with Clytia MIHR [1] (first dataset), the HillSlope is 1.15, the LogEC50 is -6.14, the Span stood at 80378 and the Top amounted to 82566. For the same compound, in the assay with Clytia MIHR [1] (setting [6]), the “HillSlope (best-fit value)” value worked out at 1.139, the “LogEC50 (best-fit value)” value is given as -5.859 and the “Span (best-fit value)” value amounted to 89.45. In the assay on Clytia MIHR [1] (second dataset), the HillSlope was determined as 0.9524, the LogEC50 is given as -5.656, the Span was found to be 33216 and the Top came to 36059. In the assay on Clytia MIHR [1], the “EC50 / relative activity on MIHR” value is on record as “the lowest”. Besides, in the assay on Clytia MIHR [2], the “Normalised response (to positive control), mean” value was 0.2052.

For `Nc1ncnc2c1nc(Br)n2[C@@H]1O[C@@H]2COP(=O)(O)O[C@H]2[C@H]1O` [Br-cAMP, bromoadenosine 3′,5′-cyclic monophosphate, reference compound], in assay [3] (setting [7]), the “maturation of isolated WT oocytes” value is listed as “triggered maturation of WT oocytes” and the “time to visible GVBD, isolated WT oocytes” value lay within 20 to 30 min. Further, the “Percentage of Oocyte maturation, Mean” value in assay [3] (cAMP (4mM BrcAMP), WT, mean of 3 replicates, Sdev 14.23) stood at 84.33. Also, the “oocyte maturation and spawning of MIHR mutant gonads, Br-cAMP treatment” value in assay [4] was “rescued meiotic maturation and spawning; also recorded: rescued the phenotype of MIHR mutant gonads, efficiently triggering oocyte maturation and spawning; also recorded: provoked oocyte maturation and spawning”. The hydrozoan oocyte maturation entry in the assay on hydrozoan oocytes is reported as “induces hydrozoan oocyte maturation”. Further, the “maturation of isolated MIHR mutant oocytes, Br-cAMP” value in assay [5] (4 mM Br-cAMP) is on record as “promoted maturation of isolated fully grown MIHR mutant oocytes; also recorded: only Br-cAMP induced maturation of MIHR KO oocytes”. The “Percentage of Oocyte maturation, Mean” value in assay [5] (cAMP (4mM BrcAMP), MIHR KO, mean of 3 replicates, Sdev 6.00) is on record as 89.91.

As to `N=C(N)NCCC[C@H](NC(=O)[C@@H]1CCCN1C(=O)[C@@H](N)CCCNC(=N)N)C(=O)N[C@@H](Cc1ccc(O)cc1)C(N)=O` [RPRYa] (H-RPRY-NH2; N-terminus assumed), the concentration giving a half-maximal response (EC50) in the assay on Clytia MIHR [1] (dataset/experiment 1) is 57.7 nM. In addition, the EC50 with Clytia MIHR [1] (dataset/experiment 2) was 164 nM. In the assay on Clytia MIHR [1] (first dataset), the HillSlope came out at 1.301, the LogEC50 is -7.239, the Bottom stood at 997.1 and the Span was 60319. The Top with Clytia MIHR [1] (first dataset) worked out at 61316. In the assay on Clytia MIHR [1] (setting [6]), the “Bottom (best-fit value)” value is given as 5.512, the “HillSlope (best-fit value)” value amounted to 1.159, the “LogEC50 (best-fit value)” value is -6.887 and the “Span (best-fit value)” value was determined as 94.5. In addition, in the assay with Clytia MIHR [1] (second dataset), the HillSlope is listed as 1.165, the LogEC50 was -6.785, the Bottom is listed as 2011 and the Span worked out at 27358. For the same compound, the Top in the assay with Clytia MIHR [1] (second dataset) is reported as 29369. Further, the “EC50 / relative activity on MIHR” value in the assay with Clytia MIHR [1] is given as “highest activity”. In the assay on Clytia MIHR [2], the “Normalised response (to positive control), mean” value worked out at 0.39.
